Laboratory results as given in EP3064205A1, “Therapeutic use of isomeric forms of 2-(4-chlorophenyl)quinolin-4-yl)(piperidin-2-yl)methanol” (Glionova AB, priority 2015, dated 2016).
Read-outs that look alike come from different tables or passages of the source.

Columns and labels:
Test in all cases: 3D clonogenic assay (PDX)
Format in all cases: cell-based, human
BXF 1352 = details: BXF 1352, Bladder; for IC50: Homo sapiens
Outline: (§1)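 Colony counts from automated image analysis of INT-stained soft-agar cultures served as the read-out. Cells were dissociated from subcutaneous PDX tumors and layered in agar. Compound was applied 24 h later at 10 concentrations (top 50 µM) and left on the cells for 8–13 days.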

GXA 3044 = details: GXA 3044, Asian Gastric; for IC50: Homo sapiens
Outline: as §1

RXF 631 = details: RXF 631, Renal; for IC50: Homo sapiens
Outline: as §1

PRXF PC-3M = details: Prostate; for IC50: Homo sapiens
Outline: as §1

PAXF 2005 = details: PAXF 2005, Pancreas; for IC50: Homo sapiens
Outline: as §1

LXFA 289 = details: LXFA 289, Lung Adeno; for IC50: Homo sapiens
Outline: as §1

PAXF 2094 = details: PAXF 2094, Pancreas; for IC50: Homo sapiens
Outline: as §1

PXF 537 = details: PXF 537, Pleuramesothelioma; for IC50: Homo sapiens
Outline: as §1

CXF 1297 = details: CXF 1297, Colorectal; for IC50: Homo sapiens
Outline: as §1

LXFA 297 = details: LXFA 297, Lung Adeno; for IC50: Homo sapiens
Outline: as §1

RXF 1220 = details: RXF 1220, Renal; for IC50: Homo sapiens
Outline: as §1

HNXF 1842 = details: HNXF 1842, Head and Neck; for IC50: Homo sapiens
Outline: as §1

Compound: O[C@H](c1cc(-c2ccc(Cl)cc2)nc2ccccc12)[C@@H]1CCCCN1 [S1, (R)-(2-(4-chlorophenyl)quinolin-4-yl)((S)-piperidin-2-yl)methanol]
- b (bottom plateau of concentration-effect curve) (BXF 1352): 0
- t (top plateau of concentration-effect curve) (BXF 1352): 97
- IC50 (BXF 1352; read-out: abs. IC50): 18.5 µM
- IC50 (BXF 1352; read-out: rel. IC50): 19 µM
- b (bottom plateau of concentration-effect curve) (GXA 3044): 15
- t (top plateau of concentration-effect curve) (GXA 3044): 101
- IC50 (GXA 3044; read-out: abs. IC50): 9.08 µM
- IC50 (GXA 3044; read-out: rel. IC50): 8.95 µM
- IC50 (RXF 631; read-out: abs. IC50): 24.6 µM
- IC50 (RXF 631; read-out: rel. IC50): 28.1 µM
- b (bottom plateau of concentration-effect curve) (RXF 631): 0
- t (top plateau of concentration-effect curve) (RXF 631): 91
- IC50 (PRXF PC-3M; read-out: abs. IC50): 16.9 µM
- IC50 (PRXF PC-3M; read-out: rel. IC50): 16.9 µM
- b (bottom plateau of concentration-effect curve) (PRXF PC-3M): 3
- t (top plateau of concentration-effect curve) (PRXF PC-3M): 98
- IC50 (PAXF 2005; read-out: abs. IC50): 9.16 µM
- IC50 (PAXF 2005; read-out: rel. IC50): 9.06 µM
- b (bottom plateau of concentration-effect curve) (PAXF 2005): 11
- t (top plateau of concentration-effect curve) (PAXF 2005): 106
- IC50 (LXFA 289; read-out: abs. IC50): 45.4 µM
- IC50 (LXFA 289; read-out: rel. IC50): 39.3 µM
- b (bottom plateau of concentration-effect curve) (LXFA 289): 21
- t (top plateau of concentration-effect curve) (LXFA 289): 94
- IC50 (PAXF 2094; read-out: abs. IC50): 8.88 µM
- IC50 (PAXF 2094; read-out: rel. IC50): 8.64 µM
- b (bottom plateau of concentration-effect curve) (PAXF 2094): 30
- t (top plateau of concentration-effect curve) (PAXF 2094): 105
- IC50 (PXF 537; read-out: abs. IC50): 8.67 µM
- IC50 (PXF 537; read-out: rel. IC50): 8.63 µM
- b (bottom plateau of concentration-effect curve) (PXF 537): 24
- t (top plateau of concentration-effect curve) (PXF 537): 80
- b (bottom plateau of concentration-effect curve) (CXF 1297): 15
- t (top plateau of concentration-effect curve) (CXF 1297): 90
- IC50 (CXF 1297; read-out: abs. IC50): 6.42 µM
- IC50 (CXF 1297; read-out: rel. IC50): 6.37 µM
- IC50 (LXFA 297; read-out: abs. IC50): 8.58 µM
- IC50 (LXFA 297; read-out: rel. IC50): 8.45 µM
- b (bottom plateau of concentration-effect curve) (LXFA 297): 24
- t (top plateau of concentration-effect curve) (LXFA 297): 100
- IC50 (RXF 1220; read-out: abs. IC50): 43.3 µM
- IC50 (RXF 1220; read-out: rel. IC50): 43.4 µM
- b (bottom plateau of concentration-effect curve) (RXF 1220): 0
- t (top plateau of concentration-effect curve) (RXF 1220): 99
- b (bottom plateau of concentration-effect curve) (HNXF 1842): 15
- t (top plateau of concentration-effect curve) (HNXF 1842): 77
- IC50 (HNXF 1842; read-out: abs. IC50): 5.4 µM
- IC50 (HNXF 1842; read-out: rel. IC50): 5.53 µM
